Three molecules from patent publication US20160015704A1, “COMBINATIONS COMPRISING MABA COMPOUNDS AND CORTICOSTEROIDS” (ALMIRALL, S.A., priority 2013, published 2016) can be followed below.

The structures appear in SMILES notation.

For the assay, the system named is IL-8 secretion induced by LPS in peripheral blood neutrophils. The assay is described as follows: Inhibition of IL-8 secretion induced by LPS in isolated peripheral blood neutrophils (ELISA). The conditions noted are these: Homo sapiens, Neutrophil; for inhibition at 10 pM: single agent 0.01 nM. The class given is cell-based. As for the experimental part: 5 Healthy subjects were included for leukocyte experiments. Pulmonary function tests (forced spirometry) and arterial blood gas measurements were performed during the days prior to sample.
Neutrophils were isolated from peripheral blood of healthy volunteers according to standard procedures established in the laboratory (Milara J et al., Respiration 2012; 83, 147-158).
Isolated neutrophils were incubated with different drugs (MABA compound, mometasone or fluticasone) or vehicle for 30 minutes before incubation with LPS (1 mcg/mL) (Lipopolysaccharide, a representative stimulus as inflammatory mediator) for 6 hours in standard cell culture conditions (37° C. and 5% CO2). Supernatant were collected to measure IL-8 (the inflammatory marker).
IL-8 (Interleukin-8) was determined by ELISA according to the standard procedure.
Data was presented as mean±SEM. Statistical analysis of results was carried out by analysis of variance (ANOVA) followed by Bonferroni test, by Student's t test, or by non-parametric tests as appropriate (GraphPad Software Inc, San Diego, Calif., USA). Significance was accepted when P<0.05.
On the technique in general: In an ELISA, binding on a coated surface is turned into a signal by an enzyme label.

The mark [1] stands for this setting: 30 min pre-incubation, LPS 1 mcg/mL 6 h, neutrophils from healthy subjects (5 volunteers in triplicate), Table 1.

As usually defined, the inhibition is the percentage by which the read-out fell short of the control. Read a high inhibition as a strong effect.

Consider `COc1cc(NC(=O)OCCN(C)[C@H]2CC[C@H](OC(=O)C(O)(c3cccs3)c3cccs3)CC2)c(Cl)cc1CNC[C@H](O)c1ccc(O)c2[nH]c(=O)ccc12` [Cpd 1, trans-4-[{2-[({[2-chloro-4-({[(2R)-2-hydroxy-2-(8-hydroxy-2-oxo-1,2-dihydroquinolin-5-yl)ethyl]amino}methyl)-5-methoxyphenyl]amino}carbonyl)oxy]ethyl}-(methyl)amino]cyclohexyl hydroxy(di-2-thienyl)acetate], for which the inhibition at 10 pM was found to be 5.6% under setting [1] and 5.6% (IL-8 secretion induced by LPS 1 mcg/mL 6 h, neutrophils from healthy subjects, Table 2).

`C[C@@H]1C[C@H]2[C@@H]3C[C@H](F)C4=CC(=O)C=C[C@]4(C)[C@@]3(F)[C@@H](O)C[C@]2(C)[C@@]1(O)C(=O)SCF` [Fluticasone, fluticasone]: at 0.0001 µM the inhibition (single agent 0.1 nM, IL-8 secretion induced by LPS 1 mcg/mL 6 h, neutrophils from healthy subjects, Table 2) was 10.2%.

`C[C@@H]1C[C@H]2[C@@H]3CCC4=CC(=O)C=C[C@]4(C)[C@@]3(Cl)[C@@H](O)C[C@]2(C)[C@@]1(O)C(=O)CCl` [Mometasone, mometasone] gave an inhibition at 10 pM under setting [1] of 2.85%.
